Reference: PMC6895048, “4,5-Disubstituted 1,2,3-triazoles: Effective Inhibition of Indoleamine 2,3-Dioxygenase 1 Enzyme Regulates T cell Activity and Mitigates Tumor Growth” (Scientific Reports, 2019)

How the values were obtained:
[1] = biological target: T1, purified human IDO1 enzyme (Homo sapiens, UniProt P14902); experiment: IDO1 inhibition assay by the spectrometric method (pDMAB); type: biochemical; settings: for IC50: purified human IDO1, spectrophotometric, mean of three independent assays, read-out: hIDO1 IC50; for fold stronger IDO1 inhibition than MMG-0358: similar experimental conditions
T1 construct: made in house; host or cells: Escherichia coli M15 (pQE30 vector with pREP4 plasmid)
Procedure: Both IDO1 and TDO inhibition assays were performed according to the reported procedures[26]–[30],[50],[51]. […] In the assay system, the minimum and maximum amount of DMSO was 0.02% and 2%, respectively. […] The concentration of the inhibitors was varied from 100 µM to 32 nM by serial dilution technique. Then, the reaction was quenched with 100 µL of 30% (w/v) trichloroacetic acid and was incubated for further 15 minutes at 65 °C. After that, 2% (w/v) pDMAB was used to quantify the amount of kynurenine formation. The absorbance of the reaction mixture was recorded by UV-Vis spectrophotometer at 480 nm.

[2] = biological target: T2, IDO1 enzyme (ferric and deoxy-ferrous) (Homo sapiens, UniProt P14902); experiment: Binding analysis by UV-Vis spectroscopic measurement; settings: for Soret band red-shift: both ferric-IDO1 and deoxy-ferrous-IDO1; for Q-band shift: deoxy-ferrous-IDO1, Q-band at 551 nm for only enzyme
T2 construct: made in house; host or cells: Escherichia coli M15 (pQE30 vector with pREP4 plasmid)
Procedure: Figure 4 Binding properties of the potent compounds. Absorption spectra of ferric-IDO1 (A) and deoxy-ferrous-IDO1 enzyme (B) in the absence and presence of the compounds (20 μM) in 100 mM phosphate buffer at pH 6.5. [IDO1] = 0.65 μM. The ferrous-deoxy reaction environment was generated by adding Na2S2O4 to the solution under N2 atmosphere. The binding isotherms were generated from the response unit (RU) at 60 sec (average of triplicate measurements) versus the concentration of the compounds. A solid line represents a theoretical curve constructed from Rmax and Kd values determined by nonlinear least-squares analysis of the isotherms (C). 20 mm HEPES buffer, pH 7.4, with 0.16 m KCl was used for all SPR measurements. […] The model structures were generated using MoleGro Virtual Docker, version 6.0. The oxygen and nitrogen atoms are shown in red and blue, respectively. Residues involved in interactions through hydrogen bond formation are shown using dashed lines (yellow). Images were generated using PyMol.
The efficacy of the compound’s direct binding to the enzyme active site was measured by UV-Vis spectroscopic analysis[26]–[28],[30]. All the measurements were performed at room temperature using 100 mM KPB (pH 6.5), purified hIDO1 enzyme (3 µM), and selected compounds (20 µM. The deoxy-reaction system was generated by injecting Na2S2O4 (~10-fold excess) into the solution pre-purged with N2 gas.

CD8+ T cells = experiment: T cell activity in breast tumor micro-environment (flow cytometry); type: cell-based, human; settings: 50 μM; for regulation of CD8+ T cells in tumor micro-environment: 20% MDA-MB-231 conditioned medium, 48 hours; for regulation of effector memory CD8+ T cells in tumor micro-environment: CCR7lowCD45RAlow phenotype
Procedure: We designed this study to evaluate the effects of IDO1 inhibition on cytotoxic T cells present in the breast tumor micro-environment. To mimic breast tumor micro-environment, we used 20% conditioned medium of human metastatic breast cancer cell line MDA-MB-231 with fresh RPMI and 10% FBS. Freshly isolated PBL cells were stimulated with PMA and ionomycin prior to culture in 20% conditioned medium and compounds at selected concentrations. Drug treatment was done for 48 hours followed by immunophenotyping by flow cytometry. For cell proliferation experiments freshly isolated PBLs were cultured in RPMI with 10% FBS and inhibitors for 48 hours. After that the cells were counted with hemocytometer. All the experiments were repeated thrice before analyzing data. The concentration of the compounds was 50 μM for all the T cell activity studies. All the T cell culture related experiments were conducted in the designated biosafety level facility available at the University of Calcutta.
Peripheral blood lymphocyte was isolated from freshly isolated blood samples of healthy volunteers in a previously described protocol. Briefly, blood was diluted with equal volume of sterile PBS and allowed in density gradient centrifugation over histopaque. Isolated PBLs were washed and cultured in RPMI medium with 10% FBS. Peripheral blood lymphocytes (PBLs) were isolated from fresh blood of healthy volunteers and cultured in RPMI medium with or without compound at selected concentration for 48 hours. Treatment of the compound uplifted cell proliferation. To evaluate whether 4,5-disubstituted 1,2,3-triazole regulate T cell activity, PBL was isolated and cultured at 20% conditioned medium of human metastatic breast cancer cell line MDA-MB-231. To perform this experiment PBL was isolated from three healthy volunteers and three independent experiments were performed. All the volunteers signed informed consent form[45],[49].
The T cells were activated according to standardized protocol published elsewhere. 100 ng/mL PMA and 1 μg/mL ionomycin were used to stimulate the T cells for 2 hrs. PBLs freshly cultured in RPMI with 10% FBS was added in the culture plate at 2 × 10^5 cells/ well and cultured at 37 °C with 5% CO2 for the duration of activation.
After treatment for given period of time the lymphocytes were analyzed for alteration of protein expression by flow cytometry according to previously published protocols. Briefly the cells were pelleted down resuspended in cell staining buffer. After cell counting cells were stained against PE-CD8 (Miltenyi Bioteh.), PerCP-Cy 5.5-CCR-7 (Miltenyi Bioteh.), APC-CD45RA (Miltenyi Bioteh.), VioBright-FITC-PD-1 (Miltenyi Bioteh.) antibodies as per the manufacturer recommended concentration and incubated in ice for given period of time. Post incubation, the cells were washed, suspended in cell staining buffer before data was acquired using FACS-Verse flow cytometer. The results were analyzed with FlowJo software (v X.0.7). The experiments were repeated thrice prior data analysis.

IDO1 = IDO1 (Homo sapiens, UniProt P14902); experiment: Equilibrium surface plasmon resonance (SPR) analysis; type: binding; set-up: made in house; host or cells: Escherichia coli M15 (pQE30 vector with pREP4 plasmid); settings: PBS buffer pH 7.4, triplicate
Procedure: The surface plasmon resonance (SPR) analysis was carried out according to the reported procedure with minor modifications[34],[52]. In brief, the measurements were performed at 25 °C on the Biacore-X100 instrument using CM5 sensor chip (GE Healthcare). PBS buffer at pH 7.4 was used as running buffer. The surface of the CM5 sensor chip was first modified with Anti-His Antibody using amine-coupling kit at a flow rate of 30 µL/ minute, followed by IDO1 enzyme (30 µg/mL) immobilization using His-capture kit at a flow rate of 10 µL/minute for 2 minutes. The IDO1 enzyme capture level was 4000 response units (RU). The binding efficacy (association constant; ka) of the compounds was determined by measuring the change in RU of the SPR sensorgram in absence or presence of the compounds (0 to 50 µM).
Figure S1. Measurements of compound binding affinity of the human IDO1 enzyme by […]
equilibrium SPR analysis.
(D), respectively injected over the biosensor chip surface-immobilized with IDO-1 protein are indicated. PBS buffer at pH 7.4 was used for all measurements. Binding isotherm was generated from the Req (average of triplicate measurements) versus the concentration of […] plot. Kd values determined by nonlinear least-squares analysis of the isotherm using the following equation: Req = Rmax/(1 + Kd/P).
Table S3. IDO1 binding affinity of various compounds determined from equilibrium SPR […]
(1 picture or pasted object on this page, not shown here)

Chain of IDO1 (P14902 whole entry): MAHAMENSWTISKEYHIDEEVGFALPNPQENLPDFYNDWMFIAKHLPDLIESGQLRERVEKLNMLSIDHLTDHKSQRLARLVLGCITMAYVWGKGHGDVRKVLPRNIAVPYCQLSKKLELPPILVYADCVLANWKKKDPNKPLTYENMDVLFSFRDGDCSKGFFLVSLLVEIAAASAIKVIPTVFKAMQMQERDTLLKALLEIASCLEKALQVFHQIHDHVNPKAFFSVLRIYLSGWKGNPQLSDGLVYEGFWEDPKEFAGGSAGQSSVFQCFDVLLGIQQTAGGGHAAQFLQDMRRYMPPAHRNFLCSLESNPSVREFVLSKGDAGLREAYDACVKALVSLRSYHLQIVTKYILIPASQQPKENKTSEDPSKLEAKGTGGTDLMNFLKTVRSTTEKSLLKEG
T1 sequence (P14902 whole entry): as above
T2 sequence (P14902 whole entry): as above

Compound	IC50 [1] [µM]	Soret band red-shift [2]	Q-band shift [2]	PD-1 expression on CD8+ T cells in tumor micro-environment (CD8+ T cells)	regulation of CD8+ T cells in tumor micro-environment (CD8+ T cells)	regulation of effector memory CD8+ T cells in tumor micro-environment (CD8+ T cells)	Kd (IDO1) [µM]	inhibition at 4 µM ([1]; 4 μM compound) [%]	inhibition at 100 µM ([1]; 100 μM compound) [%]	fold stronger IDO1 inhibition than MMG-0358 [1] [fold]
CCOC(=O)c1n[nH]nc1-c1ccc(F)c(F)c1 [Compound 2i]	0.545 ± 0.029	5–8 nm	10–13 nm	Down-regulation	Up-regulation	Up-regulation	61.7 ± 6.07			
NS(=O)(=O)NCCNC(=O)c1n[nH]nc1-c1ccc(F)c(F)c1 [Compound 4k]	0.092 ± 0.012	5–8 nm	10–13 nm	Down-regulation	Up-regulation	Up-regulation	49.1 ± 8.51	71 to 86	82 to 93	3
NC(=O)c1n[nH]nc1-c1ccc(F)c(F)c1 [Compound 3i]	0.111 ± 0.005	5–8 nm	10–13 nm	Down-regulation	Up-regulation	Up-regulation	34.5 ± 5.21			3
O=C(N/C(Cc1ccc(O)cc1)=N\O)c1n[nH]nc1-c1ccc(F)c(F)c1 [Compound 4i]	0.094 ± 0.004	5–8 nm	10–13 nm	Down-regulation	Up-regulation	Up-regulation	40.2 ± 4.99			
